For 3 compounds, IC50 results are on record in BindingDB's records for patent US12398120 (Bayer Aktiengesellschaft, 2025).

For orientation: IC50 means the concentration that inhibits the measured activity by half. A higher IC50 goes with lower potency.

In assay [1] the target is A disintegrin and metalloproteinase with thrombospondin motifs 7 (Homo sapiens, UniProt Q9UKP4). The experiment in a line: Assay for ADAMTS-7 Enzymatic Activity and Testing of Inhibitory Compounds. Here is the method:
An additional carboxyl glutamic acid was added after the QXL520 quencher to increase substrate solubility. […] IC50 values were calculated from percentage of inhibition of ADAMTS-7 activity as a function of test compound concentration.

In assay [2] the target is T1, A disintegrin and metalloproteinase with thrombospondin motifs 4 (Homo sapiens, UniProt O75173).
T1 sequence (O75173 whole entry): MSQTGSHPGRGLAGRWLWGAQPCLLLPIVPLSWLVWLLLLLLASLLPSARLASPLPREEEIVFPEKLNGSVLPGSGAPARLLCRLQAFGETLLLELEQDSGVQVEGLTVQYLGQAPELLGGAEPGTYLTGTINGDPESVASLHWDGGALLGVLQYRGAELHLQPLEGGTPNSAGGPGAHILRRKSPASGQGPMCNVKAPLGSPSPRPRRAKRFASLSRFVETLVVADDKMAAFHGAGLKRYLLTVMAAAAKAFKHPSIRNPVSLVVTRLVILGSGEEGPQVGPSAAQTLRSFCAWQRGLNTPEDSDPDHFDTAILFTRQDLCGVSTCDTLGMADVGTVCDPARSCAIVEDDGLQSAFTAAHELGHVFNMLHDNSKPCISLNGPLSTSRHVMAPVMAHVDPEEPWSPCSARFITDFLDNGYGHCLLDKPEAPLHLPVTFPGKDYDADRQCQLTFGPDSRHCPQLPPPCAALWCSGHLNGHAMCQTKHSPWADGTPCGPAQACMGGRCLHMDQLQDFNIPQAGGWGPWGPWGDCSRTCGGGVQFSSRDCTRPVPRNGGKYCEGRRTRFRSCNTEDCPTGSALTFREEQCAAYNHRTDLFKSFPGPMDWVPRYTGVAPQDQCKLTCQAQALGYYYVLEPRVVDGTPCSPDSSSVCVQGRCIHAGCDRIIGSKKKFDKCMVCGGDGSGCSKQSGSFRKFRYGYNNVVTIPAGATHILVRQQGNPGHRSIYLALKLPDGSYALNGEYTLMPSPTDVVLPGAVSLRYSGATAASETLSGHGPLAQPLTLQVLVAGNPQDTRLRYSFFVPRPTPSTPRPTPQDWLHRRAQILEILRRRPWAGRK

Sequence of A disintegrin and metalloproteinase with thrombospondin motifs 7 (Q9UKP4 whole entry): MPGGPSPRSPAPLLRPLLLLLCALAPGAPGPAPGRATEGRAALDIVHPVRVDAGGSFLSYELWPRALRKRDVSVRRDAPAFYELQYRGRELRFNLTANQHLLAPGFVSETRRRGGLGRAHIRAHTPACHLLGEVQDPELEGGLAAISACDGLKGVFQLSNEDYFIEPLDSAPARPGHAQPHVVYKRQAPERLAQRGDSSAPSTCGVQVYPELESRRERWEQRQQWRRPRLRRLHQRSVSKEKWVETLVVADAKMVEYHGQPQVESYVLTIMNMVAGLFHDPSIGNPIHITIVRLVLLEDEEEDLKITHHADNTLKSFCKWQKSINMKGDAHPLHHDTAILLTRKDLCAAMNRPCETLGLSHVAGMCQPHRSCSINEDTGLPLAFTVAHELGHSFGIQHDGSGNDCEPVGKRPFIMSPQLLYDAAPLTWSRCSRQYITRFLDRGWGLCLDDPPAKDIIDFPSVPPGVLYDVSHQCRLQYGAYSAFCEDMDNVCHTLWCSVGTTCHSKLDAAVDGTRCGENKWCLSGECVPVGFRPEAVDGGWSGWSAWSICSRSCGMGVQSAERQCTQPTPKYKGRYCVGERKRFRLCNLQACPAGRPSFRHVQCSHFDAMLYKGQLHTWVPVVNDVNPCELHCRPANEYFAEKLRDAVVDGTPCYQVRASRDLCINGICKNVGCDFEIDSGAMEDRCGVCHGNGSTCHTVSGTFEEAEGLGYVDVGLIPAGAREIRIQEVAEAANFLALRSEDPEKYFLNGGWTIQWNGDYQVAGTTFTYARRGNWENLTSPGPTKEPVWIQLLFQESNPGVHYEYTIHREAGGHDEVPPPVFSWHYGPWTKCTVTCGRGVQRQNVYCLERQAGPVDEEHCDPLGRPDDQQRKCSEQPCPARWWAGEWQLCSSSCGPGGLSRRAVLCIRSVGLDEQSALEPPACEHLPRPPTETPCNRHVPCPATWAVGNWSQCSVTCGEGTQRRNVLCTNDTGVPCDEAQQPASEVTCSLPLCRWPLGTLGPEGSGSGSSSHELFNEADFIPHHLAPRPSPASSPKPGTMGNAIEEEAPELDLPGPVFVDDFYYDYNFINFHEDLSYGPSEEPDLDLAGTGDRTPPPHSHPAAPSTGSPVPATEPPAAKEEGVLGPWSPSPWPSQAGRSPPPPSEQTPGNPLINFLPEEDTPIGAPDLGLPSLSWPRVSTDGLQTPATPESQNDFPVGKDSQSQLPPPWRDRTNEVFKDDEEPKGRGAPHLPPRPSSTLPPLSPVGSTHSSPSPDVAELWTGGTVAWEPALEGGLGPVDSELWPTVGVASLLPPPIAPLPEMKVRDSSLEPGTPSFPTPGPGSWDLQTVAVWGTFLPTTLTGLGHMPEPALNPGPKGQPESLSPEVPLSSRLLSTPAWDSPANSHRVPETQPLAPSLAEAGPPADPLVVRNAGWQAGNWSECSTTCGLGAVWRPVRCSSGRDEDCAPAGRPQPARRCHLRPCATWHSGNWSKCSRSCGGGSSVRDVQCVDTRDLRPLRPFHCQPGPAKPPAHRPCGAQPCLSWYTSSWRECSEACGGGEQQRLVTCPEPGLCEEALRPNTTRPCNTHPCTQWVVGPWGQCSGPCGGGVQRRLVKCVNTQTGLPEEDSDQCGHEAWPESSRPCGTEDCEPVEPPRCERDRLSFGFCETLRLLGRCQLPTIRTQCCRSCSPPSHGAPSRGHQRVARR

In the case of `CC(C)C1(CNC(=O)c2ccc(F)c(F)c2-c2ccc(C(F)(F)F)cc2)NC(=O)NC1=O` (single isomer, unassigned) [US12398120, Example 214], the IC50 in assay [1] is 8.97 nM; in assay [2] it was 37500 nM.

Regarding `Cc1ccc(-c2cc(F)ccc2C(=O)NC[C@@]2(C3CC3)NC(=O)NC2=O)cc1` [US12398120, Example 100], the IC50 is 45 nM in assay [1] and 8100 nM in assay [2].

Consider `Cc1ccc(-c2cc(F)ccc2C(=O)NCC2(c3nccn3C)NC(=O)NC2=O)cc1` (single isomer, unassigned) [US12398120, Example 147], for which the IC50 in assay [1] came to 4.2 nM; in assay [2] it was 1700 nM.
